Source: ChEMBL document CHEMBL1201862, “PubChem BioAssay data set” (2004)
Activity calls are given as the source filed them.

Columns and labels:
[1] = target: Luciferin 4-monooxygenase (Photinus pyralis, UniProt P08659); experiment: firefly luciferase enzyme inhibitors, dose response, biochemical, luminescence (AID 1891)
[2] = Luminescence Cell-Based Dose Confirmation HTS to Identify Inhibitors of Platelet Dense Granule Release. [Related pubchem assays: 1663 (Primary HTS), 1678 (Summary of Project)]; assay type: functional
[3] = target: T1, Rac GTPase-activating protein 1 (Homo sapiens, UniProt Q9H0H5); experiment: MgcRacGAP GTPase-activating activity inhibitors, confirmation, biochemical, ADP Hunter fluorescence, primary and confirmatory (AID 624330); assay type: functional
T1 sequence (Q9H0H5 whole entry): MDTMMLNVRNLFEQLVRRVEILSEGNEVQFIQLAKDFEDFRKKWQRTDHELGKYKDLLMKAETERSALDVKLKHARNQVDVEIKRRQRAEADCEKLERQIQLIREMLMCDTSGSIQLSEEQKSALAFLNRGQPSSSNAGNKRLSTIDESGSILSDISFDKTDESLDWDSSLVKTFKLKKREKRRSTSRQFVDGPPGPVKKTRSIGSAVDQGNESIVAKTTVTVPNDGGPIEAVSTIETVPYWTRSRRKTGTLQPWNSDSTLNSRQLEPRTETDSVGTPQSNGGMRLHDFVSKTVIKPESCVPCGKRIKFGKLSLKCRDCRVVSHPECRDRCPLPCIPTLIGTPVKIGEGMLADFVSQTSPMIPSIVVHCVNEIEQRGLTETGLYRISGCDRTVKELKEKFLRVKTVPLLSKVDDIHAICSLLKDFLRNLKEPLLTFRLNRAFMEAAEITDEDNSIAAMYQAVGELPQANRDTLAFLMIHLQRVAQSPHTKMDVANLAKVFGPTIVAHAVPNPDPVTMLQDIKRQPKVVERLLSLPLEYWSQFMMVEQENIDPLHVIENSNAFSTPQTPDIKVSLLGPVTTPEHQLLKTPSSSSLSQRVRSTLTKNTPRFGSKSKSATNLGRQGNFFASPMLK

[4] = target: T2, RNA-binding protein pos-1 (Caenorhabditis elegans, UniProt G5EF15); experiment: inhibitors of POS-1/mex-3 RNA binding, dose response, biochemical, fluorescence polarization (AID 1964);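 also: purified POS-1 fused to maltose binding protein made in E. coli; potency of compounds blocking POS-1 binding to fluorescent RNA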
T2 sequence (G5EF15 whole entry): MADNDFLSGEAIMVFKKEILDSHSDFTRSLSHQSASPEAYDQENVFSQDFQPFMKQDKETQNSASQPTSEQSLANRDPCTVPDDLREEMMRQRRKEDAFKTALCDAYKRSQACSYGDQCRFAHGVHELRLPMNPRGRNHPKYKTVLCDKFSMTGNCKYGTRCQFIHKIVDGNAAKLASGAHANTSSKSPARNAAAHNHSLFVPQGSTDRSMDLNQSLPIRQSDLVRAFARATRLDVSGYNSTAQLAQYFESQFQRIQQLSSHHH

[5] = target: T3, Zinc finger protein mex-5 (Caenorhabditis elegans, UniProt Q9XUB2); experiment: MEX-5/TCR-2 RNA interaction inhibitors, dose response, biochemical, C. elegans, fluorescence polarization (AID 1960)
T3 sequence (Q9XUB2 whole entry): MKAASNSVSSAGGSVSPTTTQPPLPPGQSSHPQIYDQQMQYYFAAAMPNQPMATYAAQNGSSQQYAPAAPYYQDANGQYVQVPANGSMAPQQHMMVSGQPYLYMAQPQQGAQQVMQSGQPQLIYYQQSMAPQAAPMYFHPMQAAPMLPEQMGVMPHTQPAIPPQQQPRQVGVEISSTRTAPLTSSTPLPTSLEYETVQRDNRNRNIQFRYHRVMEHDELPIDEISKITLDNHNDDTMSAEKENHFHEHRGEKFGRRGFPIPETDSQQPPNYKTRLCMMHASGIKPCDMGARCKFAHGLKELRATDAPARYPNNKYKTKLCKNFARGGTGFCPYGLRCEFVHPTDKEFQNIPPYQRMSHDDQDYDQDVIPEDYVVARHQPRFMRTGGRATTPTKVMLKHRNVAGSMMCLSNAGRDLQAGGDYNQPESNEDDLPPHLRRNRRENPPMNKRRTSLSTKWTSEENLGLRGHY

[6] = target: Cytochrome P450 2C19 (Homo sapiens, UniProt P33261); experiment: Cytochrome panel assay with activity outcomes. Panel member name: p450-cyp2c19 Compounds with AC50 equal or less than 10 uM are considered active; assay type: functional; details: read-out: AC50
[7] = target: Cytochrome P450 2C9 (Homo sapiens, UniProt P11712)
[8] = target: T4, Polyadenylate-binding protein 1 (Homo sapiens, UniProt P11940); experiment: PABP1 MLLE–PAM2 interaction inhibitors, dose response, miRNA deadenylation inhibitor project, biochemical, fluorescence polarization, Cy5-PAM2 peptide, secondary (AID 602260); assay type: functional; details: read-out: IC50_Mean
[9] = target: T4, Polyadenylate-binding protein 1; experiment: PABP1 MLLE–PAM2 binding inhibitor potency, dose response, biochemical, fluorescence polarization, FITC-PAM2 peptide (AID 602259); assay type: functional; details: read-out: IC50_Mean

Sequence of Luciferin 4-monooxygenase (P08659 whole entry): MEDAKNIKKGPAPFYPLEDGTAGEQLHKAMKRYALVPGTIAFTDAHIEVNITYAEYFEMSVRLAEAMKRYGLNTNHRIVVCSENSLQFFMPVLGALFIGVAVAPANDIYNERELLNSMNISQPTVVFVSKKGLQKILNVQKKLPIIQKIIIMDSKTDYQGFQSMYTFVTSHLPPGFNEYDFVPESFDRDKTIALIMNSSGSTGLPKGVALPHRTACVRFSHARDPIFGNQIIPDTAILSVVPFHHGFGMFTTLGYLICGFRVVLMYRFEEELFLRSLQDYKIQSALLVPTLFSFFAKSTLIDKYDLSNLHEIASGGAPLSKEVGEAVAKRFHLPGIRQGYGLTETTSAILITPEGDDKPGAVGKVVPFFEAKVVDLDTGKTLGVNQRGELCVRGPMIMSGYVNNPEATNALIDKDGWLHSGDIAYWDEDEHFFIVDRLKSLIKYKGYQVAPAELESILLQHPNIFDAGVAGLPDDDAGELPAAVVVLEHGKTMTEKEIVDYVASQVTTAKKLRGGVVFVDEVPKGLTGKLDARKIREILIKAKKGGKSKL
T4 sequence (P11940 whole entry): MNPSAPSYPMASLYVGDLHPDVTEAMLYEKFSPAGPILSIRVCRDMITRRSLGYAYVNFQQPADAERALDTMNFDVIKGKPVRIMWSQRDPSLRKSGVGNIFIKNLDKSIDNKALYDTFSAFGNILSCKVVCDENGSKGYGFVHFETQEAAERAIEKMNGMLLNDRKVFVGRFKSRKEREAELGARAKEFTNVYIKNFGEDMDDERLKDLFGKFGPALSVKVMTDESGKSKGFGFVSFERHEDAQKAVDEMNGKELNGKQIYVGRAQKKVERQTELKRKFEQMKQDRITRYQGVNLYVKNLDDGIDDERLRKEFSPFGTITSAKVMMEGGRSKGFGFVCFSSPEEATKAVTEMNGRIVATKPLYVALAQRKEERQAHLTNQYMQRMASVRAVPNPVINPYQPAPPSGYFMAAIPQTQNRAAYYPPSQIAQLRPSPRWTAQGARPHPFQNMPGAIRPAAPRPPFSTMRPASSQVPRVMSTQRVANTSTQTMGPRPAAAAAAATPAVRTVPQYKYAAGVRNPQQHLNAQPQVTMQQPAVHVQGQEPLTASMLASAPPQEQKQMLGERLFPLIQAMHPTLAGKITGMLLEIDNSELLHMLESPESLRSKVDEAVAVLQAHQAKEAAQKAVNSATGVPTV
Sequence of Cytochrome P450 2C19 (P33261 whole entry): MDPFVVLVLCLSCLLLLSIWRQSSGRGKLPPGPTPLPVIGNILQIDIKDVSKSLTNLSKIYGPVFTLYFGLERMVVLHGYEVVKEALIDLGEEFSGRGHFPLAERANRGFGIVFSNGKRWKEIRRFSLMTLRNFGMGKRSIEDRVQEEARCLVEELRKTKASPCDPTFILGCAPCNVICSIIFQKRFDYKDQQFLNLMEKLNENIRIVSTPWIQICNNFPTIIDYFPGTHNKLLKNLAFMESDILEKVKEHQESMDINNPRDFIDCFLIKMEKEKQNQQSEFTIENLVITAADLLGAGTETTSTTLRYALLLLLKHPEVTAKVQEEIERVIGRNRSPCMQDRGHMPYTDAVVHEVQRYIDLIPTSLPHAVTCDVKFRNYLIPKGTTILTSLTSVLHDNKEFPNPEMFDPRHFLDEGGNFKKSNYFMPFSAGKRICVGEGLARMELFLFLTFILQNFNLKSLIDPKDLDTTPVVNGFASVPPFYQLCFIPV
Sequence of Cytochrome P450 2C9 (P11712 whole entry): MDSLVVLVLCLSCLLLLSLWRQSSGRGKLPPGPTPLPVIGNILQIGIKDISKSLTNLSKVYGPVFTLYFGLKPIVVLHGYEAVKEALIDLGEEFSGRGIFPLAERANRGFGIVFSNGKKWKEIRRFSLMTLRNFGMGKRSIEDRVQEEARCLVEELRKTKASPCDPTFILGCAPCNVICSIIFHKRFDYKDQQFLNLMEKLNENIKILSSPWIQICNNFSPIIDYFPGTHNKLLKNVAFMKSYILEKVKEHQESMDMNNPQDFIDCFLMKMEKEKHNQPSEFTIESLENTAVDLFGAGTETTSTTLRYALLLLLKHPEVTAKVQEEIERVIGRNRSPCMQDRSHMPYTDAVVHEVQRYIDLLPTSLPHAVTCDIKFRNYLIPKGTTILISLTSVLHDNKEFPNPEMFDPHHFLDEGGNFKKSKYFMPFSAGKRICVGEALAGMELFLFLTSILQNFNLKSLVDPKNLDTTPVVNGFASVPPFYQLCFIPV

| SMILES | EC50 [1] | EC50 [2] | EC50 [4] | EC50 [5] | other results |
| --- | --- | --- | --- | --- | --- |
| Cc1cccc(C(=N)NOC(=O)c2ccc3c(c2)OCO3)c1 | 0.838 µM (active) | 1.47 µM (active) | – | – | – |
| Nc1c(Cl)cc(NC(=O)c2ccccc2C(=O)O)cc1Br | – | – | – | – | IC50 [3]: 169 µM (active) |
| O=C(COC(=O)c1cnc(O)nc1O)Nc1ccccc1Br | > 112 µM (not active) | > 112 µM (not active) | – | – | – |
| CN(C)C1=NC(=O)/C(=C/c2ccc(-c3ccc(S(N)(=O)=O)cc3)o2)S1 | – | – | > 300 µM (not active) | > 300 µM (not active) | – |
| Cc1ccc(-n2[nH]c(=O)c3cccnc32)cc1 | – | – | – | – | AC50 [6]: 25.1 µM (inconclusive); IC50 [3]: 95.2 µM (active); AC50 [7]: 28.2 µM (inconclusive) |
| CN(c1ccc(C(=O)Nc2ccc3c(c2)OCO3)cc1)S(C)(=O)=O | 26.3 µM (active) | 6 µM (active) | – | – | – |
| CC(Oc1ccc(Cl)cc1Cl)C(=O)Nc1ccc(O)cc1 (configuration not stated) | – | – | – | – | IC50 [3]: 38.4 µM (active) |
| CCc1nnc(NS(=O)(=O)c2ccc(NCc3ccccc3O)cc2)s1 | > 112 µM (not active) | > 112 µM (not active) | – | – | – |
| CN1C(=O)NC(=O)/C(=C/c2ccc[nH]2)C1=O | – | – | > 300 µM (not active) | > 300 µM (not active) | – |
| CCCCN(C)C(=O)CCC(=O)NNc1nc2ccccc2c2nc(C)nn12 | – | – | > 300 µM (not active) | 5.37 µM (active) | – |
| CC(C)c1ccc(/C=C(\NC(=O)c2ccccc2)C(=O)NCCN2CCOCC2)cc1 | – | – | > 300 µM (not active) | > 300 µM (not active) | – |
| COc1ccc(OC(=O)COc2ccc(C)cc2)cc1 | – | – | – | – | IC50 [3]: 30 µM (active) |
| COCCN1CCN(C(=O)c2ccc3nc(Cc4ccccc4F)oc3c2)CC1 | > 112 µM (not active) | > 112 µM (not active) | – | – | – |
| COC(=O)c1c(C)[nH]c(C(=O)OCC(=O)N2c3ccccc3NC(=O)C2(C)C)c1C | > 112 µM (not active) | > 112 µM (not active) | – | – | – |
| Cc1ccc([N+](=O)[O-])cc1S(=O)(=O)Nc1ccc(O)c(Sc2nc[nH]n2)c1 | – | – | 9.8 µM (active) | 9.83 µM (inconclusive) | IC50 [8]: > 66 µM (inactive); IC50 [9]: > 66 µM (inactive) |
| Cc1occc1C(=O)O/N=C(\N)c1ccccc1 | 3.91 µM (active) | 2.59 µM (active) | – | – | – |
| O=C(NNC(=O)c1ccccc1O)c1cccc(Br)c1 | – | – | 41 µM (active) | 25.6 µM (active) | – |
| CSCC(C)N1CCC(Oc2cccc(C(=O)NCc3ccccn3)c2)CC1 (configuration not stated) | – | – | 34.9 µM (active) | 75.4 µM (active) | IC50 [8]: 34.1 µM (inactive); IC50 [9]: 31.6 µM (inactive) |
| COc1cc2c(cc1OC)-c1cc(Nc3cccc(F)c3)nc(=O)n1CC2 | > 112 µM (not active) | 1.08 µM (active) | – | – | – |
| Cc1ccc(NC(=O)COC(=O)[C@H](C)NC(=O)c2ccccc2)cc1S(=O)(=O)N1CCOCC1 | > 112 µM (not active) | > 112 µM (not active) | – | – | – |
| COc1cc(C)c(NC(c2ccccc2)c2ccccc2)cc1OC | – | – | – | – | IC50 [3]: 113 µM (active) |
| CCOC(=O)c1c(N)sc(C(=O)Nc2ccc3c(c2)OCO3)c1C | 1.28 µM (active) | 3.34 µM (active) | – | – | – |
| Cc1nc(/C=C2\C(=O)Nc3ccccc32)c[nH]1 | – | – | > 300 µM (not active) | > 300 µM (not active) | – |
